{
  "source": "patent USRE28700E",
  "about": "“Antibiotic X-5108 for stimulating growth” (Hoffmann-La Roche Inc., priority 1972, dated 1976)",
  "key": {"Bacillus E": {"tested_on": "Bacillus E", "experiment": "Agar diffusion cup-plate assay, Bacillus E", "format": "cell-based", "description": "(§1) The activity of antibiotic X-5108 can be measured in vitro by its zone of inhibition against the gram-positive bacterium Bacillus E in the usual cup-plate agar diffusion method. Alternately the gram-positive bacterium Bacillus simplex can be employed. Both bacteria give approximately 20 mm. inhibition zones with an arbitrarily defined 1 unit/ml. solution. In this assay method, a culture of the test microorganism is grown in nutrient broth, for example, Trypticase Soy Broth, for 24 to 42 hours at 28° C. in a rotary shaker (100 ml. medium per 500 ml. Erlenmeyer flask). An inoculum concentration of 0.25 to 0.5 percent is used to inoculate the 4 ml. seed layer which is poured over a prehardened 20 ml. of base nutrient agar layer in a 100 ml. glass or disposable plastic Petri dish. The plates are refrigerated for at least two hours before cupping and filling with test solution containing the antibiotic. The plates are then incubated at 35° C. for 18 hours and zone diameters are measured to the nearest 0.5 mm. Calculations of unit per ml. potencies are then made from standard curves.\n(§2) The antimicrobial spectrum was determined by employing agar diffusion cup-plate assays as described earlier."}, "[1]": {"experiment": "Growth stimulating effect and feed efficiency in broiler chicks (Table 12)", "format": "in vivo, Cornish Cross Sexed Broiler Chicks", "description": "A basal ration was prepared containing the following named ingredients in the quantities hereinafter indicated: […]\nAntibiotic X-5108 was added to this ration in a ratio of 50 milligrams of antibiotic per kilogram of ration.\n(§3) The growth stimulating effects of antibiotic X-5108 were determined by allowing poultry to feed, ad libitum, on the antibiotic supplemented ration. In the test, one day old Cornish Cross Sexed Broiler Chicks were used. The test utilized 10 chicks per replicate (5 males and 5 females). The replicate groups were permitted access to the ration. A planned random distribution of the replicates was made to equalize factors of heating, light and position. The birds were observed over a two week period, with group weight being determined several times during the period and individual weights being determined at the end of 14 days. Feed consumption was also recorded and improvement in feed efficiency, as compared to the control, was calculated.\n(§4) The average gain for each test group is divided by the average gain of the negative control group and the quotient multiplied by 100 to yield the percent weight gain. Gain is the final body weight of the chick at the end of the 2 week test minus the beginning weight of 1 day of age. [formula]"}, "[2]": {"experiment": "Growth promotion in poultry (general statement)", "format": "in vivo"}, "caecal coccidiosis": {"tested_on": "caecal coccidiosis", "experiment": "Activity in caecal coccidiosis", "details": "in vivo"}, "mice": {"tested_on": "mice", "experiment": "Acute toxicity in mice (LD50), oral and subcutaneous", "format": "in vivo"}, "Diplococcus pneumoniae": {"tested_on": "Diplococcus pneumoniae", "experiment": "Activity against Diplococcus pneumoniae (CD50)", "format": "in vivo"}, "Bacillus simplex": {"tested_on": "Bacillus simplex", "experiment": "Agar diffusion cup-plate assay, Bacillus simplex", "format": "cell-based", "details": "arbitrarily defined 1 unit/ml. solution", "description": "as §1, §2"}, "Proteus vulgaris": {"tested_on": "Proteus vulgaris", "experiment": "Activity against gram-negative Proteus vulgaris infection", "details": "in vivo"}, "[3]": {"experiment": "Growth stimulating effect and feed efficiency in chicks, repeated trials at varied levels (Table 13)", "format": "in vivo, Cornish Cross Sexed Broiler Chicks", "details": "for Percent gain: control = 100", "description": "as §3, §4\nThe experiment described in Example 5, including the control, was repeated several times using the same basal ration as in Example 5. In these trials the level of antibiotic X-5108 was varied. The trial chickens were fed on supplemented feed rations containing the active ingredient in a ratio of 5, 10, 25, 50 and 100 mg. per kg. of feed. These trials were repeated to confirm the results. In the control test four replicates of ten birds were allowed to feed on a basal ration devoid of the antibiotic supplement. […] Feed consumption was also recorded and improvements in feed efficiency in comparison to the control were calculated. Table 13 records the results of this series of experiments."}, "Streptococcus pyogenes": {"tested_on": "Streptococcus pyogenes", "experiment": "Activity against Streptococcus pyogenes infection (CD50)", "format": "in vivo"}, "[4]": {"tested_on": "a variety of microorganisms including gram-positive and gram-negative bacteria", "experiment": "Antimicrobial activity in general / biopotency", "format": "cell-based", "description": "as §1, §2"}},
  "note": "Where two headings read alike, the source gives them in different places.",
  "data": [
    {"smiles": "C/C=C\\C=C\\[C@@H]1O[C@](O)([C@H](CC)C(=O)NC/C=C/C=C(\\C)[C@@H](OC)[C@@H](C)[C@@H]2O[C@H](/C=C/C=C/C=C(\\C)C(=O)c3c(O)ccn(C)c3=O)[C@H](O)[C@@H]2O)[C@H](O)[C@H](O)C1(C)C", "note": "[Antibiotic X-5108]", "values": [
      {"measurement": "inhibition zone", "setting": "Bacillus E; arbitrarily defined 1 unit/ml. solution", "value": "approximately 20 mm."},
      {"measurement": "potency against Bacillus E", "setting": "Bacillus E; solid powder after butyl acetate extraction, Example 1", "value": 120, "unit": "units Bacillus E per mg."},
      {"measurement": "growth rate compared to control (in words)", "setting": "[1]; 50 mg. per kilogram of feed", "value": "increased growth rate"},
      {"measurement": "improvement in feed efficiency", "setting": "[1]; 50 mg. per kilogram of feed, vs control", "value": 10, "unit": "%"},
      {"measurement": "Two-week gain, g. ±2SE", "setting": "[1]; 50 mg./kg. feed, average for 40 chicks, basal control 154±8", "value": "185 ± 12", "unit": "g"},
      {"measurement": "Feed efficiency", "setting": "[1]; 50 mg./kg. feed, two weeks, control 1.55", "value": 1.39},
      {"measurement": "Percent gain", "setting": "[1]; 50 mg./kg. feed, two weeks, control = 100", "value": 120, "unit": "%"},
      {"measurement": "Percent improved feed efficiency", "setting": "[1]; 50 mg./kg. feed, vs control", "value": "+12%"},
      {"measurement": "feed efficiency in poultry (in words)", "setting": "[2]", "value": "enhanced feed efficiency"},
      {"measurement": "growth promotion in poultry (in words)", "setting": "[2]", "value": "exhibits activity as a poultry growth promotant"},
      {"measurement": "growth promotion in poultry (in words)", "setting": "[2]; listed as antibiotic X-5108", "value": "marked growth promotion in poultry"},
      {"measurement": "activity in caecal coccidiosis (in words)", "setting": "caecal coccidiosis", "value": "activity"},
      {"measurement": "LD50", "setting": "mice; mice, oral", "value": "> 2,000 mg./kg."},
      {"measurement": "toxicity in mice (in words)", "setting": "mice; mice, orally and subcutaneously", "value": "relatively atoxic orally and subcutaneously"},
      {"measurement": "LD50", "setting": "mice; mice, subcutaneous", "value": "1,320 mg./kg."},
      {"measurement": "oral and parenteral toxicity (in words)", "setting": "mice; oral and parenteral", "value": "low oral and parenteral toxicity"},
      {"measurement": "activity against pneumococcus (in words)", "setting": "Diplococcus pneumoniae; in vivo", "value": "activity against pneumococcus"},
      {"measurement": "CD50", "setting": "Diplococcus pneumoniae; p.o.", "value": 807, "unit": "mg/kg"},
      {"measurement": "CD50", "setting": "Diplococcus pneumoniae; sbc (subcutaneous)", "value": 283, "unit": "mg/kg"},
      {"measurement": "inhibition zone", "setting": "Bacillus simplex", "value": "approximately 20 mm."},
      {"measurement": "activity against Proteus vulgaris infection (in words)", "setting": "Proteus vulgaris", "value": "active"},
      {"measurement": "Percent improved feed eff.", "setting": "[3]; 10 mg./kg., 18 birds", "value": "+13%"},
      {"measurement": "Feed eff.", "setting": "[3]; 10 mg./kg., 18 birds, control 1.54", "value": 1.41},
      {"measurement": "Two-week gain", "setting": "[3]; 10 mg./kg., 18 birds, control 149", "value": 185, "unit": "g"},
      {"measurement": "Percent gain", "setting": "[3]; 10 mg./kg., 18 birds", "value": 124, "unit": "%"},
      {"measurement": "Percent improved feed eff.", "setting": "[3]; 25 mg./kg., 18 birds", "value": "+16%"},
      {"measurement": "Feed eff.", "setting": "[3]; 25 mg./kg., 18 birds, control 1.59", "value": 1.37},
      {"measurement": "Two-week gain", "setting": "[3]; 25 mg./kg., 18 birds, control 146", "value": 180, "unit": "g"},
      {"measurement": "Percent gain", "setting": "[3]; 25 mg./kg., 18 birds", "value": 123, "unit": "%"},
      {"measurement": "Percent improved feed eff.", "setting": "[3]; 50 mg./kg., 18 birds", "value": "+7%"},
      {"measurement": "Feed eff.", "setting": "[3]; 50 mg./kg., 18 birds, control 1.47", "value": 1.38},
      {"measurement": "Two-week gain", "setting": "[3]; 50 mg./kg., 18 birds, control 152", "value": 173, "unit": "g"},
      {"measurement": "Percent gain", "setting": "[3]; 50 mg./kg., 18 birds", "value": 114, "unit": "%"},
      {"measurement": "Percent improved feed eff.", "setting": "[3]; 50 mg./kg., 24 birds", "value": "+12%"},
      {"measurement": "Feed eff.", "setting": "[3]; 50 mg./kg., 24 birds, control 1.54", "value": 1.37},
      {"measurement": "Two-week gain", "setting": "[3]; 50 mg./kg., 24 birds, control 149", "value": 175, "unit": "g"},
      {"measurement": "Percent gain", "setting": "[3]; 50 mg./kg., 24 birds", "value": 117, "unit": "%"},
      {"measurement": "Percent improved feed eff.", "setting": "[3]; 100 mg./kg., 18 birds", "value": "+14%"},
      {"measurement": "Feed eff.", "setting": "[3]; 100 mg./kg., 18 birds, control 1.54", "value": 1.33},
      {"measurement": "Two-week gain", "setting": "[3]; 100 mg./kg., 18 birds, control 149", "value": 182, "unit": "g"},
      {"measurement": "Percent gain", "setting": "[3]; 100 mg./kg., 18 birds", "value": 122, "unit": "%"},
      {"measurement": "Percent improved feed eff.", "setting": "[3]; level not given, 18 birds", "value": "+9%"},
      {"measurement": "Feed eff.", "setting": "[3]; level not given, 18 birds, control 1.51", "value": 1.39},
      {"measurement": "Two-week gain", "setting": "[3]; level not given, 18 birds, control 149", "value": 183, "unit": "g"},
      {"measurement": "Percent gain", "setting": "[3]; level not given, 18 birds", "value": 123, "unit": "%"},
      {"measurement": "CD50", "setting": "Streptococcus pyogenes; orally", "value": 52, "unit": "mg/kg"},
      {"measurement": "CD50", "setting": "Streptococcus pyogenes; subcutaneously", "value": 44, "unit": "mg/kg"},
      {"measurement": "antistreptococcal activity (in words)", "setting": "Streptococcus pyogenes; systemically (oral route) and local (subcutaneous route)", "value": "marked antistreptococcal activity"},
      {"measurement": "bipotency relative to starting material", "setting": "[4]; after countercurrent distribution, Example 3", "value": "approximately twice that of the starting material"},
      {"measurement": "antimicrobial spectrum (in words)", "setting": "[4]; agar diffusion cup-plate", "value": "broad antimicrobial spectrum"},
      {"measurement": "activity against a variety of microorganisms (in words)", "setting": "[4]; crude or more purified form", "value": "active against a variety of microorganisms including gram-positive and gram-negative bacteria"}
    ]}
  ]
}
